Conditions: Liquid; for mass density: Vibrating tube method; for speed of sound: Pulse-echo method

CCCCCn1cc[n+](C)c1.O=S(=O)([N-]S(=O)(=O)C(F)(F)F)C(F)(F)F
Conditions	mass density [kg/m3]	speed of sound [m/s]
313.15 K, 25860 kPa	1409.15	–
313.15 K, 31480 kPa	1412.95	–
313.15 K, 37770 kPa	1417.13	–
313.15 K, 44170 kPa	1421.26	–
313.15 K, 50750 kPa	1425.48	–
313.15 K, 59590 kPa	1431.06	–
318.15 K, 100 kPa	1385.75	–
318.15 K, 500 kPa	–	1187.3
318.15 K, 1830 kPa	1387.09	–
318.15 K, 3500 kPa	–	1198.6
318.15 K, 7000 kPa	–	1211.5
318.15 K, 10000 kPa	–	1222.4
318.15 K, 10020 kPa	1393.29	–
318.15 K, 13500 kPa	–	1234.8
318.15 K, 14980 kPa	1396.9	–
318.15 K, 16990 kPa	–	1246.9
318.15 K, 19750 kPa	1400.31	–
318.15 K, 20000 kPa	–	1257
318.15 K, 25860 kPa	1404.59	–
318.15 K, 30000 kPa	–	1290
318.15 K, 31480 kPa	1408.43	–
318.15 K, 37770 kPa	1412.65	–
318.15 K, 40000 kPa	–	1321
318.15 K, 44170 kPa	1416.86	–
318.15 K, 50000 kPa	–	1350.2
318.15 K, 50750 kPa	1421.15	–
318.15 K, 59590 kPa	1426.81	–
318.15 K, 60000 kPa	–	1378.2
318.15 K, 70000 kPa	–	1404.9
318.15 K, 80000 kPa	–	1430.7
318.15 K, 90000 kPa	–	1455.5
318.15 K, 100000 kPa	–	1479.5
318.15 K, 112500 kPa	–	1508
318.15 K, 125000 kPa	–	1535.9
318.15 K, 137510 kPa	–	1562.6
318.15 K, 150000 kPa	–	1587.4
323.15 K, 100 kPa	1381.45	–
323.15 K, 1830 kPa	1382.69	–
323.15 K, 10020 kPa	1388.89	–
323.15 K, 14980 kPa	1392.55	–
323.15 K, 19750 kPa	1395.96	–
323.15 K, 25860 kPa	1400.22	–
323.15 K, 31480 kPa	1404.06	–
323.15 K, 37770 kPa	1408.3	–
323.15 K, 44170 kPa	1412.52	–
323.15 K, 50750 kPa	1416.77	–
323.15 K, 59590 kPa	1422.52	–
325.15 K, 100 kPa	1379.56	–
325.15 K, 1830 kPa	1380.89	–
325.15 K, 10020 kPa	1387.23	–
325.15 K, 14980 kPa	1390.89	–
325.15 K, 19750 kPa	1394.39	–
325.15 K, 25860 kPa	1398.72	–
325.15 K, 31480 kPa	1402.63	–
325.15 K, 37770 kPa	1406.92	–
325.15 K, 44170 kPa	1411.19	–
325.15 K, 50750 kPa	1415.51	–
325.15 K, 59590 kPa	1421.18	–
327.15 K, 100 kPa	1377.56	–
327.15 K, 1830 kPa	1378.86	–
327.15 K, 10020 kPa	1385.24	–
327.15 K, 14980 kPa	1388.96	–
327.15 K, 19750 kPa	1392.45	–
327.15 K, 25860 kPa	1396.84	–
327.15 K, 31480 kPa	1400.77	–
327.15 K, 37770 kPa	1405.12	–
327.15 K, 44170 kPa	1409.39	–
327.15 K, 50750 kPa	1413.81	–
327.15 K, 59590 kPa	1419.56	–
328.15 K, 500 kPa	–	1165.8
328.15 K, 3500 kPa	–	1177.4
328.15 K, 7000 kPa	–	1190.6
328.15 K, 10000 kPa	–	1201.8
328.15 K, 13500 kPa	–	1214.2
328.15 K, 16990 kPa	–	1226.6
328.15 K, 20000 kPa	–	1236.9
328.15 K, 30000 kPa	–	1270.5
328.15 K, 40000 kPa	–	1301.9
328.15 K, 50000 kPa	–	1331.7
328.15 K, 60000 kPa	–	1360.1
328.15 K, 70000 kPa	–	1387.2
328.15 K, 80000 kPa	–	1413.4
328.15 K, 90000 kPa	–	1438.4
328.15 K, 100000 kPa	–	1462.6
328.15 K, 112500 kPa	–	1491.6
328.15 K, 125000 kPa	–	1519.6
328.15 K, 137510 kPa	–	1546.6
328.15 K, 150000 kPa	–	1571.5
329.15 K, 100 kPa	1375.46	–
329.15 K, 1830 kPa	1376.78	–
329.15 K, 10020 kPa	1383.2	–
329.15 K, 14980 kPa	1386.93	–
329.15 K, 19750 kPa	1390.47	–
329.15 K, 25860 kPa	1394.89	–
329.15 K, 31480 kPa	1398.85	–
329.15 K, 37770 kPa	1403.2	–
329.15 K, 44170 kPa	1407.56	–
329.15 K, 50750 kPa	1411.94	–
329.15 K, 59590 kPa	1417.73	–
331.15 K, 100 kPa	1373.32	–
331.15 K, 1830 kPa	1374.64	–
331.15 K, 10020 kPa	1381.17	–
331.15 K, 14980 kPa	1384.96	–
331.15 K, 19750 kPa	1388.53	–
331.15 K, 25860 kPa	1392.98	–
331.15 K, 31480 kPa	1396.98	–
331.15 K, 37770 kPa	1401.34	–
331.15 K, 44170 kPa	1405.67	–
331.15 K, 50750 kPa	1410.08	–
331.15 K, 59590 kPa	1415.87	–
333.15 K, 100 kPa	1371	–
333.15 K, 1830 kPa	1372.46	–
333.15 K, 10020 kPa	1379.05	–
333.15 K, 14980 kPa	1382.89	–
333.15 K, 19750 kPa	1386.48	–
333.15 K, 25860 kPa	1390.95	–
333.15 K, 31480 kPa	1395.01	–
333.15 K, 37770 kPa	1399.42	–
333.15 K, 44170 kPa	1403.81	–
333.15 K, 50750 kPa	1408.2	–
333.15 K, 59590 kPa	1414.01	–
338.15 K, 500 kPa	–	1144.8
338.15 K, 3500 kPa	–	1156.5
338.15 K, 7000 kPa	–	1170
338.15 K, 10000 kPa	–	1181.4
338.15 K, 13500 kPa	–	1194.3
338.15 K, 16990 kPa	–	1206.7
338.15 K, 20000 kPa	–	1217.2
338.15 K, 30000 kPa	–	1251.3
338.15 K, 40000 kPa	–	1283.3
338.15 K, 50000 kPa	–	1313.6
338.15 K, 60000 kPa	–	1342.4
338.15 K, 70000 kPa	–	1369.8
338.15 K, 80000 kPa	–	1396.3
338.15 K, 90000 kPa	–	1421.6
338.15 K, 100000 kPa	–	1446.3
338.15 K, 112500 kPa	–	1475.3
338.15 K, 125000 kPa	–	1503.7
338.15 K, 137510 kPa	–	1530.9
338.15 K, 150000 kPa	–	1556.2
